Assay results from patent US9409866B2, “Pyridine-2-amides useful as CB2 agonists” (Hoffmann-La Roche Inc., priority 2012, dated 2016).
Like-named read-outs stand apart in the source and are kept apart here.

Tests used:
human CB1 receptors = human CB1 receptors (Homo sapiens (Human), UniProt P21554); experiment: functional cAMP assay, CHO cells expressing human CB1; format: cell-based
Outline: (§1)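 Compound exposure lasted 30 min at 30 °C in IBMX (1 mM)-containing Krebs Ringer bicarbonate buffer, applied to human CB1- or CB2-expressing CHO cells. Lysates were read by time-resolved FRET cAMP detection, converted via cAMP standard curve (10 μM–0.13 nM), and EC50 values calculated.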

human CB2 receptors = human CB2 receptors (Homo sapiens (Human), UniProt P34972); experiment: functional cAMP assay, CHO cells expressing human CB2; format: cell-based
human CB2 receptors, sequence (P34972 whole entry): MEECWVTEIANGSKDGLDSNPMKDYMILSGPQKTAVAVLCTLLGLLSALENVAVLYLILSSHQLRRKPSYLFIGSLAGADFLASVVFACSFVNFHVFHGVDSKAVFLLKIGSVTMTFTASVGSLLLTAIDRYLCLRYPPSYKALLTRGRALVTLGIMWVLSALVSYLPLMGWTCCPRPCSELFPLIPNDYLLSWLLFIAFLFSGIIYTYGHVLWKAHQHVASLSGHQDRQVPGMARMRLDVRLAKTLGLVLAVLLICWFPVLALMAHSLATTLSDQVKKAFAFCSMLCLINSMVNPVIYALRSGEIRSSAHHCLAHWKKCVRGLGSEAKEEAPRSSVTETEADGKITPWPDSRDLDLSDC
Outline: as §1

[1] = Human CB1 EC50 (uM), functional cAMP assay, CHO cells expressing human CB1
[2] = read-out: Human CB1 EC50; functional cAMP assay, CHO cells expressing human CB1
[3] = functional cAMP assay, CHO cells expressing human CB1; read-out: Human CB1 EC50

human CB1 receptors, sequence (P21554 whole entry): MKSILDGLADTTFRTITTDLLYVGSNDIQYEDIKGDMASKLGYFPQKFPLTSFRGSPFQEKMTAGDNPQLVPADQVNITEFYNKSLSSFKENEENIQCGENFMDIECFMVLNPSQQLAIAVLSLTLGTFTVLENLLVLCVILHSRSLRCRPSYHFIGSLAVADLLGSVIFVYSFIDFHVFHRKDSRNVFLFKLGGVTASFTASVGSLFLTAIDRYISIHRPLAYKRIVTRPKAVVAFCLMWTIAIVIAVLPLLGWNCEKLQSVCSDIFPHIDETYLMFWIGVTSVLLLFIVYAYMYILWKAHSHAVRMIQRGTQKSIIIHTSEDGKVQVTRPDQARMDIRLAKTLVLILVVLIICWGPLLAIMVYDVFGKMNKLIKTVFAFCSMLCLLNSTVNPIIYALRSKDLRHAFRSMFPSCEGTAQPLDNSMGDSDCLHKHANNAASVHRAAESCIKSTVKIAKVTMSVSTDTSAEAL

| Structure (SMILES) | EC50 (human CB1 receptors; [1]) [µM] | EC50 (human CB2 receptors; Human CB2 EC50 (uM)) [µM] | EC50 (human CB1 receptors; [2]) [µM] | EC50 (human CB2 receptors; read-out: Human CB2 EC50) [µM] | EC50 (human CB1 receptors; [3]) [µM] |
| --- | --- | --- | --- | --- | --- |
| Cc1nc(C(C)(CS(C)(=O)=O)NC(=O)c2cc(OCC(F)F)c(C3CC3)cn2)no1 (single isomer, unassigned) [Example 283, 5-cyclopropyl-4-(2,2-difluoroethoxy)-N-(2-(5-methyl-1,2,4-oxadiazol-3-yl)-1-(methylsulfonyl)propan-2-yl)picolinamide] | > 10 | 0.0533 | – | – | – |
| Cc1nc(C(C)(CS(C)(=O)=O)NC(=O)c2cc(OCC(F)F)c(C3CC3)cn2)no1 (single isomer, unassigned) [Example 284, 5-cyclopropyl-4-(2,2-difluoroethoxy)-N-(2-(5-methyl-1,2,4-oxadiazol-3-yl)-1-(methylsulfonyl)propan-2-yl)picolinamide] | – | 0.0453 | > 10 | – | – |
| Cc1nc(C(C)(CC2CC2)NC(=O)c2cc(OC(C)CF)c(C3CC3)cn2)no1 (single isomer, unassigned) [Example 287, 5-cyclopropyl-N-(1-cyclopropyl-2-(5-methyl-1,2,4-oxadiazol-3-yl)propan-2-yl)-4-(1-fluoropropan-2-yloxy)picolinamide] | > 10 | 0.0014 | – | – | – |
| Cc1nc(C(C)(CC2CC2)NC(=O)c2cc(OC(C)CF)c(C3CC3)cn2)no1 (single isomer, unassigned) [Example 288, 5-cyclopropyl-N-(1-cyclopropyl-2-(5-methyl-1,2,4-oxadiazol-3-yl)propan-2-yl)-4-(1-fluoropropan-2-yloxy)picolinamide] | – | 0.0008 | > 10 | – | – |
| Cc1nc(C(C)(CC2CC2)NC(=O)c2cc(OC(C)CF)c(C3CC3)cn2)no1 (single isomer, unassigned) [Example 289, 5-cyclopropyl-N-(1-cyclopropyl-2-(5-methyl-1,2,4-oxadiazol-3-yl)propan-2-yl)-4-(1-fluoropropan-2-yloxy)picolinamide] | – | – | > 10 | 0.001 | – |
| Cc1nc(C(C)(CC2CC2)NC(=O)c2cc(OC(C)CF)c(C3CC3)cn2)no1 (single isomer, unassigned) [Example 290, 5-cyclopropyl-N-(1-cyclopropyl-2-(5-methyl-1,2,4-oxadiazol-3-yl)propan-2-yl)-4-(1-fluoropropan-2-yloxy)picolinamide] | – | – | > 10 | 0.0006 | – |
| CC(CF)Oc1cc(C(=O)NC2(CC(N)=O)CS(=O)(=O)C2)ncc1C1CC1 (single isomer, unassigned) [Example 291, N-[3-(2-amino-2-oxoethyl)-1,1-dioxothietan-3-yl]-5-cyclopropyl-4-[1-fluoropropan-2-yl]oxypyridine-2-carboxamide] | > 10 | 0.0003 | – | – | – |
| CC(CF)Oc1cc(C(=O)NC2(CC(N)=O)CS(=O)(=O)C2)ncc1C1CC1 (single isomer, unassigned) [Example 292, N-[3-(2-amino-2-oxoethyl)-1,1-dioxothietan-3-yl]-5-cyclopropyl-4-[1-fluoropropan-2-yl]oxypyridine-2-carboxamide] | – | 0.0019 | > 10 | – | – |
| Cc1nc(C(C)(CS(C)(=O)=O)NC(=O)c2cc(OC(C)CF)c(C3CC3)cn2)no1 (single isomer, unassigned) [Example 295, 5-cyclopropyl-4-(1-fluoropropan-2-yloxy)-N-(2-(5-methyl-1,2,4-oxadiazol-3-yl)-1-(methylsulfonyl)propan-2-yl)picolinamide] | > 10 | 0.0024 | – | – | – |
| Cc1nc(C(C)(CS(C)(=O)=O)NC(=O)c2cc(OC(C)CF)c(C3CC3)cn2)no1 (single isomer, unassigned) [Example 296, 5-cyclopropyl-4-(1-fluoropropan-2-yloxy)-N-(2-(5-methyl-1,2,4-oxadiazol-3-yl)-1-(methylsulfonyl)propan-2-yl)picolinamide] | – | 0.0422 | > 10 | – | – |
| Cc1nc(C(C)(CS(C)(=O)=O)NC(=O)c2cc(OC(C)CF)c(C3CC3)cn2)no1 (single isomer, unassigned) [Example 297, 5-cyclopropyl-4-(1-fluoropropan-2-yloxy)-N-(2-(5-methyl-1,2,4-oxadiazol-3-yl)-1-(methylsulfonyl)propan-2-yl)picolinamide] | – | – | > 10 | 0.0032 | – |
| Cc1nc(C(C)(CS(C)(=O)=O)NC(=O)c2cc(OC(C)CF)c(C3CC3)cn2)no1 (single isomer, unassigned) [Example 298, 5-cyclopropyl-4-(1-fluoropropan-2-yloxy)-N-(2-(5-methyl-1,2,4-oxadiazol-3-yl)-1-(methylsulfonyl)propan-2-yl)picolinamide] | – | – | > 10 | 0.0579 | – |
| CC(CF)Oc1cc(C(=O)NC(C)(CC(N)=O)C2CC2)ncc1C1CC1 (single isomer, unassigned) [Example 301, N-(4-amino-2-cyclopropyl-4-oxobutan-2-yl)-5-cyclopropyl-4-(1-fluoropropan-2-yloxy)picolinamide] | > 10 | 0.0304 | – | – | – |
| CC(CF)Oc1cc(C(=O)NC(C)(CC(N)=O)C2CC2)ncc1C1CC1 (single isomer, unassigned) [Example 302, N-(4-amino-2-cyclopropyl-4-oxobutan-2-yl)-5-cyclopropyl-4-(1-fluoropropan-2-yloxy)picolinamide] | 0.869 | 0.001 | – | – | – |
| CC(CF)Oc1cc(C(=O)NC(C)(CC(N)=O)C2CC2)ncc1C1CC1 (single isomer, unassigned) [Example 303, N-(4-amino-2-cyclopropyl-4-oxobutan-2-yl)-5-cyclopropyl-4-(1-fluoropropan-2-yloxy)picolinamide] | – | – | – | 0.0485 | > 10 |
| CC(CF)Oc1cc(C(=O)NC(C)(CC(N)=O)C2CC2)ncc1C1CC1 (single isomer, unassigned) [Example 304, N-(4-amino-2-cyclopropyl-4-oxobutan-2-yl)-5-cyclopropyl-4-(1-fluoropropan-2-yloxy)picolinamide] | – | – | – | 0.0021 | 0.82 |
| Cc1nc(C(C)(NC(=O)c2cc(OCC(F)(F)F)c(C3(F)CCC3)cn2)C2CC2)no1 (single isomer, unassigned) [Example 306, N-(1-cyclopropyl-1-(5-methyl-1,2,4-oxadiazol-3-yl)ethyl)-5-(1-fluorocyclobutyl)-4-(2,2,2-trifluoroethoxy)picolinamide] | > 10 | 0.0118 | – | – | – |
| Cc1nc(C(C)(NC(=O)c2cc(OCC(F)(F)F)c(C3(F)CCC3)cn2)C2CC2)no1 (single isomer, unassigned) [Example 307, N-(1-cyclopropyl-1-(5-methyl-1,2,4-oxadiazol-3-yl)ethyl)-5-(1-fluorocyclobutyl)-4-(2,2,2-trifluoroethoxy)picolinamide] | 0.032 | 0.0034 | – | – | – |
| CC(CC(N)=O)(NC(=O)c1cc(OCC(F)(F)F)c(C2(F)CCC2)cn1)C1CC1 (single isomer, unassigned) [Example 309, N-[4-amino-2-cyclopropyl-4-oxobutan-2-yl]-5-(1-fluorocyclobutyl)-4-(2,2,2-trifluoroethoxy)pyridine-2-carboxamide] | 0.475 | 0.002 | – | – | – |
| CC(CC(N)=O)(NC(=O)c1cc(OCC(F)(F)F)c(C2(F)CCC2)cn1)C1CC1 (single isomer, unassigned) [Example 310, N-[4-amino-2-cyclopropyl-4-oxobutan-2-yl]-5-(1-fluorocyclobutyl)-4-(2,2,2-trifluoroethoxy)pyridine-2-carboxamide] | 2.44 | 0.0154 | – | – | – |
| Cc1nc([C@@](C)(NC(=O)c2cc(OCC(F)(F)F)c(C3CC3)cn2)C2CC2)no1 (single isomer, unassigned; enantiomer a) [Example 61, 5-Cyclopropyl-4-(2,2,2-trifluoro-ethoxy)-pyridine-2-carboxylic acid [1-cyclopropyl-1-(5-methyl-[1,2,4]oxadiazol-3-yl)-ethyl]-amide (enantiomer A)] | > 10 | 0.0276 | – | – | – |
| CC(C)C[C@H](CC(N)=O)NC(=O)c1cc(OCC(F)(F)F)c(C2CC2)cn1 (single isomer, unassigned; enantiomer a) [Example 65, 5-Cyclopropyl-4-(2,2,2-trifluoro-ethoxy)-pyridine-2-carboxylic acid (1-carbamoylmethyl-3-methyl-butyl)-amide (enantiomer A)] | > 10 | 0.027 | – | – | – |
| Cc1nc(C(C)(CC2CC2)NC(=O)c2cc(OCC(F)(F)F)c(C3CC3)cn2)no1 (single isomer, unassigned; enantiomer a) [Example 66, 5-Cyclopropyl-4-(2,2,2-trifluoro-ethoxy)-pyridine-2-carboxylic acid [2-cyclopropyl-1-methyl-1-(5-methyl-[1,2,4]oxadiazol-3-yl)-ethyl]-amide (enantiomer A)] | > 10 | 0.00595 | – | – | – |
| Cc1nc([C@](C)(NC(=O)c2cc(OCC(F)(F)F)c(Cl)cn2)C2CC2)no1 (single isomer, unassigned; enantiomer a) [Example 74, 5-Chloro-4-(2,2,2-trifluoro-ethoxy)-pyridine-2-carboxylic acid [1-cyclopropyl-1-(5-methyl-[1,2,4]oxadiazol-3-yl)-ethyl]-amide (enantiomer A)] | > 10 | 0.0133 | – | – | – |
| Cc1nc([C@](C)(NC(=O)c2cc(OCC(F)(F)F)c(N3CC(F)(F)C3)cn2)C2CC2)no1 (single isomer, unassigned; enantiomer a) [Example 87, 5-(3,3-Difluoro-azetidin-1-yl)-4-(2,2,2-trifluoro-ethoxy)-pyridine-2-carboxylic acid [1-cyclopropyl-1-(5-methyl-[1,2,4]oxadiazol-3-yl)-ethyl]-amide (enantiomer A)] | > 10 | 0.0568 | – | – | – |
